IC50 and Ki data for 26 compounds are collected here from patent US11787780B2 (CORCEPT THERAPEUTICS INCORPORATED, priority 2020, dated 2023).

For test [1], the target named is glucocorticoid receptor (GR) recombinant ligand binding domain (LBD) (Homo sapiens (Human), UniProt P04150). Description: GR binding fluorescence polarisation (FP) assay. To be noted: displacement of fluorescently tagged ligand. On the procedure: Binding of test compounds to the glucocorticoid receptor (GR) is determined using a fluorescence polarisation (FP) assay utilising a recombinant ligand binding domain (LBD) of GR. The test compounds are assessed by their ability to displace a fluorescently tagged ligand and detection of the resulting decrease in fluorescence polarisation.
glucocorticoid receptor (GR) recombinant ligand binding domain (LBD), sequence (P04150 524-758): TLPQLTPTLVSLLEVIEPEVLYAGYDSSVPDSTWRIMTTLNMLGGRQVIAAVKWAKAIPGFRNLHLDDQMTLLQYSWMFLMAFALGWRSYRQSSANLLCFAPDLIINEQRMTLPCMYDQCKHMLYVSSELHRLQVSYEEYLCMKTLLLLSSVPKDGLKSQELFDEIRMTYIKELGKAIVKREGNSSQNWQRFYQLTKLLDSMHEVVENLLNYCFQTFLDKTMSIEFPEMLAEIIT
(In general: Fluorescence polarisation rises when a labelled molecule tumbles more slowly, as on binding a larger partner.)

Test [2] concerns induction of TAT by dexamethasone in HepG2 cells. Briefly: Hep G2 TAT assay (inhibition of dexamethasone-induced TAT). It counts as cell-based, human. As to conditions: challenge of 100 nM dexamethasone, IC50 converted to Ki by Cheng and Prusoff equation.

In general, IC50 refers to the concentration that gives 50% inhibition. By Ki is commonly meant a measure of affinity in units of concentration, obtained from inhibition or displacement. In the case of `Cc1cc2c(cnn2-c2ccc(=O)n(C)c2)cc1C1(Cc2ccccc2)CCN(S(=O)(=O)c2cn(C)c(C)n2)C1` (stereo not shown) [Example 288], the IC50 in test [1] turned out to be 33 nM. In test [2], this compound had a Ki of 110 nM.
In the same order, the values of `Cc1cc2c(cnn2-c2ccc(=O)n(C)c2)cc1C1(Cc2ccccc2)CCN(S(=O)(=O)C2CC2)C1` (stereo not shown) [Example 289, 5-(5-(3-benzyl-1-(cyclopropylsulfonyl)pyrrolidin-3-yl)-6-methyl-1H-indazol-1-yl)-1-methylpyridin-2(1H)-one] are 13 nM and 69 nM.
Turning to `Cc1cc2c(cnn2-c2ccc(=O)n(C)c2)cc1C1(Cc2ccccc2)CCN(S(=O)(=O)c2cn(C)cn2)C1` (stereo not shown) [Example 290, 5-(5-(3-benzyl-1-((1-methyl-1H-imidazol-4-yl)sulfonyl)pyrrolidin-3-yl)-6-methyl-1H-indazol-1-yl)-1-methylpyridin-2(1H)-one], the IC50 in test [1] was determined as 62 nM. This compound displayed a Ki in test [2] of 200 nM.
For the compound `Cc1cc2c(cnn2-c2ccc(=O)n(C)c2)cc1C1(Cc2ccccc2)CCN(S(=O)(=O)c2ccc(C(F)(F)F)nc2)C1` (stereo not shown) [Example 292, 5-(5-(3-benzyl-1-((6-(trifluoromethyl)pyridin-3-yl)sulfonyl)pyrrolidin-3-yl)-6-methyl-1H-indazol-1-yl)-1-methylpyridin-2(1H)-one], the IC50 in test [1] was 14 nM. The compound further showed a Ki in test [2] of 110 nM.
For `Cc1cc2c(cnn2-c2ccc(=O)n(C)c2)cc1C1(Cc2ccccc2)CCN(S(=O)(=O)c2ccnn2C)C1` (stereo not shown) [Example 293, 5-(5-(3-benzyl-1-((1-methyl-1H-pyrazol-5-yl)sulfonyl)pyrrolidin-3-yl)-6-methyl-1H-indazol-1-yl)-1-methylpyridin-2(1H)-one], the IC50 in test [1] was found to be 6.1 nM. In test [2], this compound showed a Ki of 100 nM.
For the compound `Cc1cc2c(cnn2-c2ccc(=O)n(C)c2)cc1C1(Cc2ccccc2)CCN(S(=O)(=O)c2ccccc2)C1` (stereo not shown) [Example 294, 5-(5-(3-benzyl-1-(phenylsulfonyl)pyrrolidin-3-yl)-6-methyl-1H-indazol-1-yl)-1-methylpyridin-2(1H)-one], in test [1], the IC50 came out at 4 nM. Moreover, affinity in test [2] was put at a Ki of 41 nM.
Take `Cc1cc2c(cnn2-c2ccc(=O)n(C)c2)cc1C1(Cc2ccccc2)CCN(S(=O)(=O)c2cccc(C#N)c2)C1` (stereo not shown) [Example 295, 3-((3-benzyl-3-(6-methyl-1-(1-methyl-6-oxo-1,6-dihydropyridin-3-yl)-1H-indazol-5-yl)pyrrolidin-1-yl)sulfonyl)benzonitrile]: the IC50 in test [1] is 6.3 nM. Further, the affinity in test [2], expressed as Ki, was 62 nM.
Turning to `[2H]C([2H])([2H])n1ncc(S(=O)(=O)N2CCC(Cc3ccccc3)(c3cc4cnn(-c5ccc(=O)n(C)c5)c4cc3C)C2)n1` (stereo not shown) [Example 296, 5-(5-(3-benzyl-1-((2-(methyl-d3)-2H-1,2,3-triazol-4-yl)sulfonyl)pyrrolidin-3-yl)-6-methyl-1H-indazol-1-yl)-1-methylpyridin-2(1H)-one], the IC50 in test [1] was determined as 6.9 nM. This compound also came in with a Ki in test [2] of 44 nM.
In the case of `Cc1cc2c(cnn2-c2ccc(=O)n(C)c2)cc1C1(Cc2ccccc2)CCN(S(=O)(=O)c2cc(F)cc(F)c2)C1` (stereo not shown) [Example 297, 5-(5-(3-benzyl-1-((3,5-difluorophenyl)sulfonyl)pyrrolidin-3-yl)-6-methyl-1H-indazol-1-yl)-1-methylpyridin-2(1H)-one], the IC50 in test [1] amounted to 10 nM. The same compound displayed an inhibition constant Ki in test [2] of 36 nM.
With `Cc1cc2c(cnn2-c2ccc(=O)n(C)c2)cc1C1(Cc2ccccc2)CCN(S(=O)(=O)c2ccc(F)cc2)C1` (stereo not shown) [Example 298, 5-(5-(3-benzyl-1-((4-fluorophenyl)sulfonyl)pyrrolidin-3-yl)-6-methyl-1H-indazol-1-yl)-1-methylpyridin-2(1H)-one], the IC50 in test [1] was 3.6 nM. In addition, affinity in test [2] was put at a Ki of 37 nM.
With `Cc1ccc(S(=O)(=O)N2CCC(Cc3ccccc3)(c3cc4cnn(-c5ccc(=O)n(C)c5)c4cc3C)C2)cn1` (stereo not shown) [Example 299, 5-(5-(3-benzyl-1-((6-methylpyridin-3-yl)sulfonyl)pyrrolidin-3-yl)-6-methyl-1H-indazol-1-yl)-1-methylpyridin-2(1H)-one], the IC50 in test [1] came to 8.8 nM. This compound also registered a Ki in test [2] of 48 nM.
With `Cc1cc2c(cnn2-c2ccc(=O)n(C)c2)cc1C1(Cc2ccccc2)CCN(S(=O)(=O)c2cncc(F)c2)C1` (stereo not shown) [Example 300, 5-(5-(3-benzyl-1-((5-fluoropyridin-3-yl)sulfonyl)pyrrolidin-3-yl)-6-methyl-1H-indazol-1-yl)-1-methylpyridin-2(1H)-one], the IC50 in test [1] turned out to be 4.6 nM. The compound further registered a Ki in test [2] of 36 nM.
For the compound `Cc1cc2c(cnn2-c2ccc(=O)n(C)c2)cc1C1(Cc2ccccc2)CCN(S(=O)(=O)c2ccccc2F)C1` (stereo not shown) [Example 301, 5-(5-(3-benzyl-1-((2-fluorophenyl)sulfonyl)pyrrolidin-3-yl)-6-methyl-1H-indazol-1-yl)-1-methylpyridin-2(1H)-one], the IC50 in test [1] was found to be 4.8 nM. The Ki in test [2] came out at 25 nM.
In the case of `Cc1cc2c(cnn2-c2ccc(=O)n(C)c2)cc1C1(Cc2ccccc2)CCN(S(=O)(=O)c2cccc(F)c2)C1` (stereo not shown) [Example 302, 5-(5-(3-benzyl-1-((3-fluorophenyl)sulfonyl)pyrrolidin-3-yl)-6-methyl-1H-indazol-1-yl)-1-methylpyridin-2(1H)-one], the concentration for half-maximal inhibition (IC50) in test [1] came to 12 nM. Affinity in test [2] was put at a Ki of 27 nM.
In the case of `Cc1cc2c(cnn2-c2ccc(=O)n(C)c2)cc1C1(Cc2ccccc2)CCN(S(=O)(=O)c2cccc(C(F)(F)F)n2)C1` (stereo not shown) [Example 303, 5-(5-(3-benzyl-1-((6-(trifluoromethyl)pyridin-2-yl)sulfonyl)pyrrolidin-3-yl)-6-methyl-1H-indazol-1-yl)-1-methylpyridin-2(1H)-one], the IC50 in test [1] came out at 4.4 nM. In test [2], this compound returned a Ki of 24 nM.
On to `COc1ccc(S(=O)(=O)N2CCC(Cc3ccccc3)(c3cc4cnn(-c5ccc(=O)n(C)c5)c4cc3C)C2)cc1` (stereo not shown) [Example 304, 5-(5-(3-benzyl-1-((4-methoxyphenyl)sulfonyl)pyrrolidin-3-yl)-6-methyl-1H-indazol-1-yl)-1-methylpyridin-2(1H)-one], for which the IC50 in test [1] was found to be 7.5 nM. The affinity in test [2] corresponds to a Ki of 48 nM.
Turning to `Cc1cc2c(cnn2-c2ccc(=O)n(C)c2)cc1C1(Cc2ccccc2)CCN(S(=O)(=O)c2ccc(Cl)cc2)C1` (stereo not shown) [Example 305, 5-(5-(3-benzyl-1-((4-chlorophenyl)sulfonyl)pyrrolidin-3-yl)-6-methyl-1H-indazol-1-yl)-1-methylpyridin-2(1H)-one], the IC50 in test [1] turned out to be 3 nM. The same compound had a Ki in test [2] of 32 nM.
On to `COc1ccc(S(=O)(=O)N2CCC(Cc3ccccc3)(c3cc4cnn(-c5ccc(=O)n(C)c5)c4cc3C)C2)cn1` (stereo not shown) [Example 306, 5-(5-(3-benzyl-1-((6-methoxypyridin-3-yl)sulfonyl)pyrrolidin-3-yl)-6-methyl-1H-indazol-1-yl)-1-methylpyridin-2(1H)-one], for which the IC50 in test [1] amounted to 11 nM. This compound also registered a Ki in test [2] of 56 nM.
Consider `Cc1ccc(S(=O)(=O)N2CCC(Cc3ccccc3)(c3cc4cnn(-c5ccc(=O)n(C)c5)c4cc3C)C2)cc1` (stereo not shown) [Example 307, 5-(5-(3-benzyl-1-tosylpyrrolidin-3-yl)-6-methyl-1H-indazol-1-yl)-1-methylpyridin-2(1H)-one], for which, in test [1], the IC50 came out at 8.8 nM. The inhibition constant Ki in test [2] worked out at 89 nM.
Turning to `Cc1cc2c(cnn2-c2ccc(=O)n(C)c2)cc1C1(Cc2ccccc2)CCN(S(=O)(=O)c2ccc(C#N)cc2)C1` (stereo not shown) [Example 308, 4-((3-benzyl-3-(6-methyl-1-(1-methyl-6-oxo-1,6-dihydropyridin-3-yl)-1H-indazol-5-yl)pyrrolidin-1-yl)sulfonyl)benzonitrile], the 50% inhibitory concentration (IC50) in test [1] was 14 nM. Also, in test [2], the affinity, expressed as Ki, was 62 nM.
Take `Cc1cncc(S(=O)(=O)N2CCC(Cc3ccccc3)(c3cc4cnn(-c5ccc(=O)n(C)c5)c4cc3C)C2)c1` (stereo not shown) [Example 309, 5-(5-(3-benzyl-1-((5-methylpyridin-3-yl)sulfonyl)pyrrolidin-3-yl)-6-methyl-1H-indazol-1-yl)-1-methylpyridin-2(1H)-one]: in test [1], the IC50 was found to be 11 nM. This compound also gave a Ki in test [2] of 66 nM.
`COc1cccc(S(=O)(=O)N2CCC(Cc3ccccc3)(c3cc4cnn(-c5ccc(=O)n(C)c5)c4cc3C)C2)c1` (stereo not shown) [Example 310, 5-(5-(3-benzyl-1-((3-methoxyphenyl)sulfonyl)pyrrolidin-3-yl)-6-methyl-1H-indazol-1-yl)-1-methylpyridin-2(1H)-one]: the IC50 in test [1] came out at 11 nM. In test [2], affinity was put at a Ki of 66 nM.
For `Cc1cc2c(cnn2-c2ccc(=O)n(C)c2)cc1C1(Cc2ccccc2)CCN(S(=O)(=O)c2cnccc2Cl)C1` (stereo not shown) [Example 311, 5-(5-(3-benzyl-1-((4-chloropyridin-3-yl)sulfonyl)pyrrolidin-3-yl)-6-methyl-1H-indazol-1-yl)-1-methylpyridin-2(1H)-one], in that order: 3 nM and 29 nM.
In the case of `Cc1cc2c(cnn2-c2ccc(=O)n(C)c2)cc1C1(Cc2ccccc2)CCN(S(=O)(=O)c2cncc(Cl)c2)C1` (stereo not shown) [Example 312, 5-(5-(3-benzyl-1-((5-chloropyridin-3-yl)sulfonyl)pyrrolidin-3-yl)-6-methyl-1H-indazol-1-yl)-1-methylpyridin-2(1H)-one], the IC50 in test [1] came out at 12 nM. In test [2], this compound displayed a Ki of 41 nM.
On to `Cc1cc2c(cnn2-c2ccc(=O)n(C)c2)cc1C1(Cc2ccccc2)CCN(S(=O)(=O)c2ccc(Cl)cc2C#N)C1` (stereo not shown) [Example 313, 2-((3-benzyl-3-(6-methyl-1-(1-methyl-6-oxo-1,6-dihydropyridin-3-yl)-1H-indazol-5-yl)pyrrolidin-1-yl)sulfonyl)-5-chlorobenzonitrile], for which the concentration for half-maximal inhibition (IC50) in test [1] is 8.3 nM. In addition, in test [2], the Ki was 50 nM.
Regarding `Cc1cc2c(cnn2-c2ccc(=O)n(C)c2)cc1C1(Cc2ccccc2)CCN(S(=O)(=O)c2ccc(F)cc2F)C1` (stereo not shown) [Example 314, 5-(5-(3-benzyl-1-((2,4-difluorophenyl)sulfonyl)pyrrolidin-3-yl)-6-methyl-1H-indazol-1-yl)-1-methylpyridin-2(1H)-one], in test [1], the IC50 was 11 nM. The compound further yielded a Ki in test [2] of 56 nM.
